# From US10940188B2, “Compounds and methods for treatment and prevention of Flavivirus infection” (priority 2016, dated 2021)
# Counter-ions that a name gives are not always drawn. Like-named read-outs stand apart in the source and are kept apart here.
# Columns and labels:
# ZIKV MR766 NS1 = test: microbe, parasite or virus in culture; format: cell-based, Zika virus; settings: read-out: NS1-IC50
# Procedure: A one-step NS1 TR-FRET (Time-resolved fluorescence resonance energy transfer) assay for a screen of anti-ZIKV compounds was carried out. Human embryonic kidney cell line HEK293 cells were seeded into 384-well plates and infected with ZIKV MR766 at a MOI of 0.5 for 2 days. The FRET assay was performed with two clones of anti-NS1 antibody (ab) differentially labelled with donor and acceptor fluorophores.
# HEK293 cells = test: Toxicity IC50 (cell-killing activity) of the NS1 TR-FRET screen; format: cell-based, human; settings: cell-killing activity; for IC50: read-out: Tox IC50
# [1] = system: ZIKV production from SNB-19 cells; test: Infectious ZIKV production from SNB-19 cells, focus-forming unit assay on Vero cells; format: cell-based, Zika virus; settings: PRVABC59-ZIKV, SNB-19 supernatants on Vero cells, ZIKV-ENV stain; read-out: IC50 against ZIKV infection in human glioblastoma cell culture
# Procedure: FIGS. 2A-1, 2A-2, 2B-1, 2B-2, 2C-1, 2C-2, 2D-1, 2D-2, 2D-3, 2E-1, 2E-2, and 2F. […] Screening of select compounds for antiviral activity against ZIKV infection was carried out. Glioblastoma SNB-19 cells were treated with indicated compound at 10×AC50 (determined in the primary caspase screen) for 1 hour prior to inoculation with FSS-13025 (at MOI=1). Cells were harvested 24 hours post infection and analyzed by Western blot for ZIKV-NS1 or GAPDH (FIGS. 2A-1 and 2A-2). Titration of PHA-690509 on glioblastoma cells for anti-ZIKV activity. Three strains of virus (FSS-13025, PRVABC59, and MR766; MOI=1) were tested. Shown are sample western blot images (FIG. 2B-1) and ImageJ quantification (FIG. 2B-2). Values represent mean±s.d. (n=3; ***P<0.001; One-way ANOVA). Titration of Emricasan on SNB-19 cells for anti-ZIKV activity was conducted similarly (FIGS. 2C-1 and 2C-2). Values represent mean±s.d. […] Sample western blot (FIG. 2D-2) and ImageJ quantification (FIG. 2D-3) are shown for infection with the PRVABC59 strain (MOI=1). Results for additional strains are shown in FIGS. 6A-F. Values represent mean±s.d. […] The concentration of NS1 in the medium of infected SNB-19 cells collected 24 hours post-infection was quantified by a ZIKV-NS1 ELISA kit (FIGS. 2E-1 and 2E-2). […] Cell culture supernatant was collected 24 hours after infection, and infectious virions were quantified for focus-forming units (FFU) using Vero cells. […] Curves represent best fits for calculating IC50 values, and the insets report the calculated IC50 value for each compound.
# FIGS. 18A, 18B, 18C-1, 18C-2, 18D, 18E, 18F, 18G-1, and 18G-2. […] 24 hours post infection, supernatants from SNB-19 cells were titrated onto naïve vero cells plated in a monolayer in 96-well plates for infectious focus-forming unit assay as previously described and focus forming units quantified. […] Immunofluorescence (IF) staining (FIG. 18C-1) and quantification (FIG. 18C-2) of ZIKV positive SNB-19 cells following infection with one of three ZIKV strains and treatment with emetine at 0.01, 0.1, or 1 μM. […]
# FIG. 21. […] IC50's calculated using graphpad PRISM software. […]
# [2] = system: hNPCs infected with ZIKV PRVABC59; test: hNPC proliferation after ZIKV infection (EdU); format: cell-based, human; settings: PHA-690509 1 μM, Seliciclib 5 μM
# Procedure: (§1) FIGS. 17A-17C. Analysis of potential toxicity of CDKis on human astrocyte viability and hNPC proliferation. Human iPSC-derived astrocytes (BJ line) were treated with each indicated compound (cpd) for 25 hours prior to cell viability analysis as measured in relative luciferase units for ATP production. Values represent mean+s.d. (n=3 cultures; ***P<0.001; **P<0.01; One-way ANOVA for comparison with the DMSO treatment). RLU: relative luminescence units. hNPCs were treated with saline, PHA-690509 (PHA, 1 μM) or Seliciclib (5 μM), 1 hour prior to ZIKV PRVABC59 infection (MOI=0.08). At 72 hours post infection, EdU (10 μM) was added to hNPCs and cells were cultured for additional 4 hours prior to fixation and staining for EdU and DAPI. Values represent mean+s.e.m. (n=3 cultures; ***P<0.001; One-way ANOVA for comparison with the mock treatment). Day 20 forebrain-specific brain organoids were treated with PHA-690509 (1 μM) or Seliciclib (5 μM) for 3 days and hNPC proliferation was evaluated by phospho-Histone 3 (PH3) expression within the ventricular zone. Values represent mean+s.e.m. (n=8 organoids; P>0.05; One-way ANOVA for comparison with the mock treatment).
# [3] = system: forebrain-specific brain organoids; test: hNPC proliferation in forebrain organoids (phospho-Histone 3), compound alone; format: cell-based, human; settings: 3 days
# Procedure: as §1
# [4] = HEK293 cells, ZIKV MR766, MOI 0.5, 2 days, virus-inhibiting activity
Compound,"IC50 (ZIKV MR766 NS1; Zika virus, HEK293, 48 h) [nM]",Tox IC50 (HEK293 cells),IC50 (ZIKV MR766 NS1; [4]) [nM],other results
CC(=O)O[C@H]1C(=O)[C@@]2(C)[C@H]([C@H](OC(=O)c3ccccc3)[C@]3(O)C[C@H](OC(=O)[C@H](O)[C@@H](NC(=O)c4ccccc4)c4ccccc4)C(C)=C1C3(C)C)[C@]1(OC(C)=O)CO[C@@H]1C[C@@H]2O [PACLITAXEL],89.4,No,,
CC(C)C[C@H](NC(=O)CNC(=O)c1cc(Cl)ccc1Cl)B1OC(=O)C(CC(=O)O)(CC(=O)O)O1 [Ixazomib citrate],196,,,"IC50 (HEK293 cells; Homo sapiens, HEK293): 1580 nM"
COc1cccc2c1C(=O)c1c(O)c3c(c(O)c1C2=O)C[C@@](O)(C(C)=O)C[C@@H]3O[C@H]1C[C@H](N)[C@H](O)[C@H](C)O1 [Daunorubicin],536,No,,
O=C1c2c(O)ccc(O)c2C(=O)c2c(NCCNCCO)ccc(NCCNCCO)c21 [Mitoxantrone],232,,,"IC50 (HEK293 cells; Homo sapiens, HEK293): 50000 nM"
CCCCCCCC(=O)Oc1ccc(Cl)cc1C(=O)Nc1ccc([N+](=O)[O-])cc1Cl [DK520],,,,IC50 [1]: < 3000 nM
O=c1[nH]c2ccc(Cl)cc2c(N[C@@H]2CN3CCC2CC3)c1-c1nc2ccccc2[nH]1 [CHIR-124],,,405,IC50 (HEK293 cells): 3250 nM
"CC[C@H](CO)Nc1nc(NCc2ccccc2)c2ncn(C(C)C)c2n1 [Seleciclib, Seliciclib]",,,,rescue of ZIKV-induced reduction of hNPC proliferation [2]: partially rescued ZIKV-induced reduction of hNPC proliferation; effect of the treatment itself on hNPC proliferation [3]: minimal effect on hNPC proliferation in brain organoids
CC[C@@]1(O)C(=O)OCc2c1cc1n(c2=O)Cc2cc3cc(O)ccc3nc2-1 [10-hydroxycamptothecin],,No,46.6,
CN[C@@H]1C[C@H]2O[C@@](C)([C@@H]1OC)n1c3ccccc3c3c4c(c5c6ccccc6n2c5c31)C(=O)N[C@H]4O [7-Hydroxystaurosporine],,,760,IC50 (HEK293 cells): 102000 nM
